The values that follow come from patent publication US20060292158A1, “Method for the treatment of cancer using a novel pharmaceutical composition containing at least one dolastatin 10 derivative” (priority 2004, published 2006).

For assay [1], the system named is NCI-H460 human large cell lung carcinoma xenograft. In words: Antitumor activity in NCI-H460 subcutaneous xenograft in athymic nude mice, combination with cisplatin (Example 4). Particulars: day 12. The format is in vivo. The procedure: The NCI-H460 human large cell lung carcinoma cell line was purchased from American Type Culture Collection (MD, U.S.A.). The cells were cultured in RPMI-1640 medium (cat. # R8758, lot 12K2310, exp 01/03; lot 82K2497, exp 08/03; Sigma-Aldrich corporation, MO, U.S.A.) supplemented with 10% (v/v) fetal bovine serum (cat. # 047115, lot # 31300124; Roche Diagnostics KK, Tokyo, Japan).
Sixty of 5-week-old male athymic nude mice (BALB/c nu/nu) were purchased from Charles River Japan, Inc. (Yokohama, Japan). All mice were kept for 8 days in the animal facility of Kamakura Research Laboratories of Chugai Pharmaceutical Co., Ltd. before subjection to the experiment.
The title compound was synthesized at Kamakura Research Laboratories of Chugai Pharmaceutical Co., Ltd. CDDP (Randa™, lot # 924150) was obtained from Nippon Kayaku Co., Ltd. (Tokyo, Japan). The title compound was dissolved in dimethyl sulfoxide (DMSO) and diluted into 2.5 % DMSO solution with saline (for Injection; Ohtsuka Pharmaceutical Industry Co., Ltd., Tokushima, Japan) at the date of administration. CDDP was diluted with saline at the date of administration.
The in vivo evaluation procedure for anticancer drugs was based on the methods described by Plowman, et al. (1997) for xenograft models. See, “Anticancer Drug Development Guide: Preclinical Screening, Clinical Trials, and Approval, Teicher B (ed) pp. 101-125, specifically Chap. 6, “Human Tumor Xenograft Models in NCI Drug Development”, hereby incorporated by reference. A single cell suspension of NCI-H460 (5.6×10^6 cells per mouse) was inoculated subcutaneously into the right flank of each mouse. The tumor volume was estimated by using the equation ab^2/2, where a and b represent tumor length and width, respectively. Mice bearing tumors of between 150 and 245 mm^3 were selected on day 7 after tumor inoculation and were randomly divided into 8 groups, consisting of 5 mice each. Mean tumor volume and body weight of the selected mice were 187 mm3 and 24.3 g, respectively. Drug administration was initiated after mice were divided into groups. The title compound (2 mg/kg or 3 mg/kg), CDDP (5 mg/kg or 6.7 mg/kg) and each vehicle were administered intravenously. Tumor volume and body weight of each mouse were measured twice a week. […] Tumor growth inhibition was calculated using the equation (1-ΔT/ΔC)×100, where ΔT represents the difference in tumor volume from the initial treatment date of the treated group and ΔC represents the difference in tumor volume from the initial treatment date of the vehicle group.

Assay [2] has as its system HT-29 human colorectal adenocarcinoma xenograft. The format is in vivo. Particulars: day 31. The procedure:
The HT-29 human colorectal adenocarcinoma cell line was purchased from American Type Culture Collection (Rockville, MD, U.S.A.). The cells were cultured in McCoy's 5a medium (Sigma-Aldrich Corporation, MO, U.S.A.) supplemented with 10% (v/v) fetal bovine serum (Roche Diagnostics KK, Tokyo, Japan).
Sixty of 5-week-old male athymic nude mice (BALB/c nu/nu) were purchased from Charles River Japan, Inc. (Yokohama, Japan). All mice were kept for 9 days in the animal facility of Kamakura Research Laboratories of Chugai Pharmaceutical Co., Ltd. before subjection to the experiment.
Capecitabine was dissolved by the 40 milli mol/L citrate buffered-5% Gum arabic solution (pH 6.0; Chugai Pharmaceutical Co., Ltd.).
The in vivo evaluation procedure for anticancer drugs was based on the methods described by Plowman, et al. (1997) for xenograft models. See, “Anticancer Drug Development Guide: Preclinical Screening, Clinical Trials, and Approval, Teicher B (ed) pp. 101-125, specifically Chap. 6, “Human Tumor Xenograft Models in NCI Drug Development”, hereby incorporated by reference. A single cell suspension of HT-29 (1.1×10^7 cells per mouse) was inoculated subcutaneously into the right flank of each mouse. The tumor volume was estimated by using the equation ab^2/2, where a and b represent tumor length and width, respectively. Mice bearing tumors of between 172 and 282 mm^3 were selected on day 10 after tumor inoculation and were randomly divided into 7 groups, consisting of 6 mice each. Mean tumor volume and body weight of the selected mice were 217 mm^3 and 25.0 g respectively. Drug administration was initiated after mice were divided into groups. […] Capecitabine (359 mg/kg or 539 mg/kg) and its vehicle were administered orally. Tumor volume and body weight of each mouse were measured twice a week. […] Tumor growth inhibition was calculated using the equation (1-ΔT/ΔC)×100, where ΔT represents the difference in tumor volume from the initial treatment date of the treated group and ΔC represents the difference in tumor volume from the initial treatment date of the vehicle group.

Where [3] appears, read: 3 mg/kg (1/2 MTD) i.v. weekly x3.

Where two headings read alike, the source gives them in different places.

Turning to `CC[C@H](C)[C@@H]([C@@H](CC(=O)N1CCC[C@H]1[C@H](SC)[C@@H](C)C(=O)N(C)CCc1cccc(O)c1)OC)N(C)C(=O)[C@@H](NC(=O)[C@H](C(C)C)N(C)C)C(C)C` [compound of formula (I-A), N-[1-({1-sec-Butyl-4-[2-(2-{[2-(3-hydroxy-phenyl)-ethyl]-methyl-carbamoyl}-1-methylsulfanyl-propyl)-pyrrolidin-1-yl]-2-methoxy-4-oxo-butyl}-methyl-carbamoyl)-2-methyl-propyl]-2-dimethylamino-3-methyl-butyramide], the “reduction of tumor growth” value in assay [1] (2 mg/kg (1/3 MTD) i.v. weekly x3) came to 45%; in assay [1] (setting [3]) it was 93%; in assay [2] (setting [3]), 76%; in assay [2] (4 mg/kg (2/3 MTD) i.v. weekly x3) it was 101%.
